Assays:
[1] = system: Dermatophagoides pteronyssinus; test: Mini-mattress trap: attraction capabilities of attracting solutions sprayed on felt; assay type: in vivo
Procedure: (§1) Rearing: The species studied were Dermatophagoides pteronyssinus and Dermatophagoides farinae, house dust mite common in mattresses in Eurasia. Mites are reared in Petri dishes and fed with human skin flakes (skin and whiskers obtained by cleaning electric […]). All mites were reared together under defined conditions (20° C. and 75% relative humidity). The experiments took place in a room kept at 20° C. and 40% relative humidity. Aim of the experiments: The aim was to test the trap in condition similar to the conditions that will be met by the user of the trap. Materials and methods: The mattresses were built at a smaller scale (15× reduction) than usual mattresses. These mini-mattresses are made in polyurethane and covered by a cover in cotton. They were infested with mites since at least 3 months. The fabric was a felt of 20 mg/cm^2 and is a rectangle of 10 cm×20 cm. It was placed on the mini-mattress. Then the attracting solution was sprayed on the fabric with a spray bottle. The fabric was left in place on the mattress during one hour. During this time, the mites moved in the felt. It is very difficult to count directly the mites hidden in the mattress and in the fabric. Therefore, we used a Berlèse funnel which is a device that is usually used to separate insects from litter. Here, it was used to separate the mites from their mattress or from the fabric. The Berlèse funnel uses a light bulb to heat and dry the mattress, thus driving the mites downwards through a screen and into a collecting jar containing some food and some water. […] They are attracted by a source of moisture and the smell of food. The mattress or blanket were therefore placed in the funnel (FIG. 2). The mites went downwards in the direction of the jar, then in the jar. The harvest of the jar containing the mites took place after one day. Mites had then 24 hours to migrate to the jar collector. As a substantial proportion of the population is immobile (moulting mites), trapping is less efficient than it would be otherwise and estimate of population size that is trapped are likely to be biased. To avoid this bias and make a proper assessment of the populations in infested mattresses, mattresses were carefully brushed with a soft brush at the end of the manipulation meaning that immobile mites and eggs also fall into the funnel. Fabric was carefully brushed too. The Berlèze funnel was rinsed with ethanol. Thus, mites still on the inner wall of the funnel were driven by ethanol in the jar collector. At the end of the experiment, the jar contained: the food used as attracting to mites, a small amount of water also used for attracting, mites, and ethanol. The jar was emptied into a Petri dish and we counted mites under binocular. Counting of mites was made under binocular microscope (magnification 10×). The set-up is illuminated with a cold lamp (KL 1500 LCD, Schott ●). The felt was sprayed with different attracting compositions: a solution of lavandulol, a solution of Tween 60, a combination of lavandulol and Tween 60, a solution of citral, and the attracting solution commercialized under the brand name Acar'up were compared at various dilutions.

Dermatophagoides farinae = test: as above; assay type: in vivo
Procedure: as §1

[2] = system: Dermatophagoides pteronyssinus; test: Binary choice test in Petri dish, colored felt with attracting agent versus white felt with water; assay type: in vivo
Procedure: Aim of the experiments: All experiments are tests of binary choice aiming to determine the preference of mites and the place where they prefer to stay (at least for 30 min).
Rearing: The species studied was Dermatophagoides pteronyssinus, a dust mite common in mattresses in Eurasia. Mites are reared in Petri dishes and fed with human skin flakes (skin and whiskers obtained by cleaning electric shavers). All mites were reared together under defined conditions (20° C. and 75% relative humidity). The experiments took place in a room kept at 20° C. and 40% relative humidity.
Materials and methods: A group of mites (20<n<40) was placed in the center of a Petri dish (ø5.5 cm) around which two semi-circles of felt were placed (see FIG. 1). The pieces of felts were 70 mg/cm^2, their thickness was 2 mm. One felt is the control (control felt), for instance impregnated with water; the other felt is the felt with the tested item, for instance the felt that is impregnated with a chemical compound that is tested.
Mites move spontaneously towards one of the two felts.
Observations and counting of mites was made under binocular microscope (magnification 10×). The set-up is illuminated with a cold lamp (KL 1500 LCD, Schott ●), the lighting is symmetric and the light intensity was 50Klux. The experimental conditions were controlled in the room (T° C.: 19-22° C. and RH 40%). […]

mites = conditions: washing at low temperature, final concentration of 0.03% benzyl benzoate (Bischoff et al 1998); cited from earlier work
[3] = Dilution 10^−6 (* mixture of a lavandulol solution at 10^−6 and a Tween 60 solution at 10^−6)

Compound | attraction capabilities, percentage of mites ([1]; Dilution 10^−3) | attraction capabilities, percentage of mites [1, 3] | attraction capabilities, percentage of mites ([1]; Dilution 10^−9) | attraction capabilities, percentage of mites ([1]; Dilution Undiluted) | attraction capabilities, percentage of mites (Dermatophagoides farinae; Dilution 10^−1) | attraction capabilities, percentage of mites (Dermatophagoides farinae; Dilution 10^−3) | attraction capabilities, percentage of mites (Dermatophagoides farinae; [3]) | attraction capabilities, percentage of mites (Dermatophagoides farinae; Dilution 10^−9) | attraction capabilities, percentage of mites (Dermatophagoides farinae; Dilution Undiluted) | Mean (choice of mites for the tested felt) ([2]; blue felt + 1 μl attracting agent (dil 10^−6) versus white felt + 1 μl H2O, 18 trials) | migration of the mites toward the blue felt ([2]; blue felt in combination with citral) | mite control in delicate garments (mites)
CC(C)=CCCC(C)=CC=O [Citral, 3,7-dimethyl-2,6-octadienal, reference compound] | 23% | 76% | 56% | 3% | 49% | 36% | 48% | 43% | 5% | 0.84 | 84% | –
O=C(OCc1ccccc1)c1ccccc1 [benzyl benzoate] | – | – | – | – | – | – | – | – | – | – | – | possible to achieve mite control
Polyethylene glycol sorbitan monostearate [Tween 60] | 70% | 78% | 57% | 14% | – | 54% | 81% | 39% | 7% | – | – | –

From US20220386582A1, “METHOD AND DEVICE TO TRAP ACARIDS” (DOMOBIOS, priority 2015, published 2022)
